{
  "source": "patent US12016831B2",
  "about": "“Polidocanol for use as immunomodulating agent” (priority 2018, dated 2024)",
  "test_system": "patients with autoimmune diseases (psoriasis, rheumatoid arthritis, systemic scleroderma)",
  "assay": "Cytokine and CRP levels in patients with autoimmune diseases after single administration",
  "format": "in vivo, human",
  "conditions": "for Interleukin 1 beta level: T0 = 1; for Interleukin 13 level: T0 = 4; for Interleukin 6 level: T0 = 4.6; for Interleukin 7 level: T0 = 7; for CRP level: T0 = 32; for Interleukin 12 level / Interleukin 17 (25) level: T0 = 40; for Interleukin 9 level: T0 = 50; for TNF alpha level: T0 = 60",
  "method": "A similar approach was used in a limited group of patients with autoimmune diseases. 10 patients (5 with psoriasis, 3 with rheumatoid arthritis, 2 with systemic scleroderma) were administered once the composition of the invention and a sample of blood was taken at T1 (8 days), T2 (30 days) and T3 (60 days). Cytokine and CRP (C-Reactive Protein, an index of inflammation) levels were measured by SCREEN CRP TEST and compared to those at time 0 (before the treatment).",
  "data": [
    {"substance": "Polidocanol [diluted polidocanol]", "values": [
      {"measurement": "Interleukin 1 beta level", "setting": "T1 (8 days) after single administration, average, 10 patients", "value": 1.5},
      {"measurement": "Interleukin 13 level", "setting": "T1 (8 days)", "value": 5},
      {"measurement": "Interleukin 6 level", "setting": "T1 (8 days)", "value": 4.8},
      {"measurement": "Interleukin 7 level", "setting": "T1 (8 days)", "value": 9},
      {"measurement": "CRP level", "setting": "T1 (8 days)", "value": 30},
      {"measurement": "Interleukin 12 level", "setting": "T1 (8 days)", "value": 42},
      {"measurement": "Interleukin 17 (25) level", "setting": "T1 (8 days)", "value": 45},
      {"measurement": "Interleukin 9 level", "setting": "T1 (8 days)", "value": 80},
      {"measurement": "TNF alpha level", "setting": "T1 (8 days)", "value": 52},
      {"measurement": "Interleukin 1 beta level", "setting": "T2 (30 days)", "value": 1.7},
      {"measurement": "Interleukin 13 level", "setting": "T2 (30 days)", "value": 5},
      {"measurement": "Interleukin 6 level", "setting": "T2 (30 days)", "value": 3.7},
      {"measurement": "Interleukin 7 level", "setting": "T2 (30 days)", "value": 3},
      {"measurement": "CRP level", "setting": "T2 (30 days)", "value": 24},
      {"measurement": "Interleukin 12 level", "setting": "T2 (30 days)", "value": 36},
      {"measurement": "Interleukin 17 (25) level", "setting": "T2 (30 days)", "value": 32},
      {"measurement": "Interleukin 9 level", "setting": "T2 (30 days)", "value": 100},
      {"measurement": "TNF alpha level", "setting": "T2 (30 days)", "value": 42},
      {"measurement": "Interleukin 1 beta level", "setting": "T3 (60 days)", "value": 1.2},
      {"measurement": "Interleukin 13 level", "setting": "T3 (60 days)", "value": 4},
      {"measurement": "Interleukin 6 level", "setting": "T3 (60 days)", "value": 3.2},
      {"measurement": "Interleukin 7 level", "setting": "T3 (60 days)", "value": 3},
      {"measurement": "CRP level", "setting": "T3 (60 days)", "value": 16},
      {"measurement": "Interleukin 12 level", "setting": "T3 (60 days)", "value": 32},
      {"measurement": "Interleukin 17 (25) level", "setting": "T3 (60 days)", "value": 28},
      {"measurement": "Interleukin 9 level", "setting": "T3 (60 days)", "value": 120},
      {"measurement": "TNF alpha level", "setting": "T3 (60 days)", "value": 48}
    ]}
  ]
}
